Here are results for one compound from patent US20180318355A1, “METHODS AND COMPOSITIONS FOR IMPROVED TISSUE REGENERATION BY SUPPRESION OF INTERFERIN-GAMMA AND TUMOR NECROSIS FACTOR-ALPHA” (Alfred E. Mann Institute for Biomedical Eng. at the …, priority 2011, published 2018).

Entries after “also recorded” stand apart in the source; their conditions may differ.

Assay [1] relates to IFN-γ positive cells. The assay can be described thus: Immunohistochemical staining of IFN-γ positive cells in BMMSC implants. Format: in vivo. Conditions: aspirin treated vs untreated control, C57BL6 mice. As to the method: (§1) Immunofluorescent and immunochemical microscopy. The transplants were harvested, fixed in 4% paraformaldehyde and then decalcified with 5% ethylenediaminetetraacetic acid (EDTA, pH 7.4), followed by paraffin or optimal cutting temperature compound (OCT, Sakura Fineteck Inc., Torrance, Calif.) embedding. The paraffin or frozen sections were blocked with normal serum matched to secondary antibodies, incubated with the specific or isotype-matched mouse antibodies (1:200) overnight at 4° C. For immunofluorescent staining, the samples were treated with Rhodamin/FITC-conjugated secondary antibodies (1:200, Jackson ImmunoResearch, West Grove, Pa.; Southern Biotechnology, Birmingham, Ala.), and were mounted by means of a vectashield mounting medium containing 4′,6-diamidino-2-phenylindole (DAPI) (Vector Laboratories, Burlingame, Calif.). For immunochemical staining, the samples were stained by using Zymed SuperPicture™ Kit (Invitrogen Corporation) according to the manufacturer's instruction.
(§2) Immunochemical microscopy. The transplants were harvested, fixed in 4% paraformaldehyde and then decalcified with 5% ethylenediaminetetraacetic acid (EDTA, pH 7.4), followed by paraffin or optimal cutting temperature compound (OCT, Sakura Fineteck Inc., Torrance, Calif.) embedding. […]

The subject of assay [2] is TNF-α. The assay can be described thus: ELISA of TNF-α level in BMMSC implants. Type of assay: in vivo, mice. Conditions: aspirin treatment vs untreated control, 2 to 14 days post implantation. The source says:
(§3) Kits. Pan T cell isolation kit II and CD4^+CD25^+ regulatory T Cell isolation kit were purchased from Miltenyi Biotec (Bergisch Gladbach, Germany). Mouse IFN-γ, TNF-α, IL-6, IL-17A, IL-4 and IL-10 ELISA Ready-SET-GO kits were purchased from eBioscience (San Diego, Calif.). siRNA kits for Fas, Smad 6, TNFR2, IKK, FLIP and XIAP were purchased from Santa Cruz Biosciences (Santa Cruz, Calif.).
In general terms: An ELISA detects its analyte on a solid surface through an enzyme-linked reagent.

For assay [3], the system named is TNF-α positive cells. Description: Immunohistochemical staining of TNF-α positive cells in BMMSC implants. Conditions: aspirin treated vs untreated control, C57BL6 mice. Type of assay: in vivo. As to the method: as §1, §2
Assay [4] deals with IFN-γ. The assay can be described thus: ELISA of IFN-γ level in BMMSC implants. Format: in vivo, mice. Conditions: aspirin treatment vs untreated control, 2 to 14 days post implantation.
Text: as §3

For assay [5], the system named is BMMSC-mediated bone formation. The assay can be described thus: BMMSC-mediated bone formation, subcutaneous BMMSC/HA/TCP implantation. Type of assay: in vivo. Conditions: immunocompromised mice. How it is done:
BMMSC-mediated bone formation. Approximately 4.0×10^6 BMMSCs were mixed with hydroxyapatite/tricalcium phosphate (HA/TCP) ceramic particles (40 mg, Zimmer Inc., Warsaw, Ind.) as a carrier and subcutaneously implanted into the dorsal surface of 8-10 weeks old immunocompromised mice or C57BL/6J mice. At eight weeks post-implantation, the implants were harvested, fixed in 4% paraformaldehyde and then decalcified with 5% EDTA (pH 7.4), followed by paraffin embedding. The 6 μm paraffin sections were stained with hematoxylin and eosin (H&E) and analyzed by an NIH Image J. Five fields were selected and newly formed mineralized tissue area in each field was calculated and shown as a percentage to total tissue area.
Cytokines in BMMSC-mediated bone formation. Approximately 4.0×10^6 of littermate-derived or autologous BMMSCs were mixed with HA/TCP ceramic powders (40 mg, Zimmer Inc.), and hydrogel (Glycosan Biosysterms, Salt Lake City, Utah) with 200 ng IFN-γ, TNF-α, IL-4, IL-6 or IL-17A were covered on the surface of the implants as a slow released system. At eight weeks post-implantation, the implants were harvested and newly formed mineralized tissue areas were analyzed. […]
BMMSC-mediated bone formation. Approximately 4.0×10^6 of littermate-derived or autologous BMMSCs were mixed with hydroxyapatite/tricalcium phosphate (HA/TCP) ceramic particles (40 mg, Zimmer Inc., Warsaw, Ind.) as a carrier and subcutaneously implanted into the dorsal surface of 8-10 weeks old immunocompromised mice or C57BL6 mice. When aspirin was used, BMMSCs were treated with 50 μg/ml aspirin for 2 days and mixed with HA/TCP particles to be subcutaneously implanted into immunocompromised mice. When IFN-γ and TNF-α were used in the subcutaneous implants, 200 ng IFN-γ, TNF-α or/and 100 μg aspirin mixed with 250 μl hydrogel as a slow released system and subcutaneously co-implanted to the dorsal surface of 8-10 weeks old immunocompromised mice.
At eight weeks post-implantation, the implants were harvested, fixed in 4% paraformaldehyde and then decalcified with 5% EDTA (pH 7.4), followed by paraffin embedding. The 6 μm paraffin sections were stained with hematoxylin and eosin (H&E) and analyzed by an NIH Image J. Five fields were selected and newly formed mineralized tissue area in each field was calculated and shown as a percentage to total tissue area.

Assay [6] concerns GFP^+ BMMSCs. The assay can be described thus: Cell survival assay, subcutaneous GFP+ BMMSC implantation. Format: in vivo, mice. Conditions: 50 μg/ml aspirin pre-treated 2 days, 100 μg aspirin co-implanted, 4 to 30 days post implantation. As to the method:
Cell survival assay. 4×10^6 BMMSCs isolated from C57BL/6-Tg (CAG-EGFP)1Osb/J mice were combined with different concentrations of IFN-γ (0, 20, 50, 100, 200 ng/ml) and TNF-α (0, 20, 50, 100, 200 ng/ml) and subcutaneously transplanted into immunocompromised mice, hydrogel was used as a slowly released carrier. Thirty days after translation, the implants were harvested and digested in a solution of 3 mg/mL collagenase type I (Worthington Biochem) and 4 mg/mL dispase (Roche) for 1 h at 37° C. Single-cell suspensions were obtained by passing the cells through a 70 μm strainer (BD Bioscience). 1.0-1.5×10^6 BMMSCs were seeded into 100 mm culture dishes (Corning) and incubated for 48 hours under 37° C. at 5% CO2 condition. To eliminate the non-adherent cells, the cultures were washed with PBS twice. The attached cells were cultured for 10 days with alpha minimum essential medium (α-MEM, Invitrogen) supplemented with 20% FBS, 2 mM L-glutamine (Invitrogen), 55 μM 2-mercaptoethanol (Invitrogen), 100 U/ml penicillin, and 100 μg/ml streptomycin (Invitrogen). The numbers of GFP positive cells were counted under fluorescent microscopy.

The test system of assay [7] is IL-10. Description: ELISA of IL-10 level in BMMSC implants. Format: in vivo, mice. Conditions: aspirin treatment vs untreated control, 2 to 14 days post implantation.
Text: as §3

The test system of assay [8] is calvarial bone defects. The assay can be described thus: Calvarial bone defect repair by BMMSC/gelfoam implantation. Format: in vivo, C57BL/6J mice. As to the method: Calvarial bone defect model in C57BL/6J mice. The skin of C57BL/6J mice was cut and periosteum was elevated. The surface of mouse cavarial bone was exposed, and oversize bone defects of 7 mm×8 mm were established. The bone defect was larger than usually critical size with diameter of 4 mm.
Implantation of BMMSCs to calvarial bone defects in C57BL/6J mice. 4×10^6 BMMSCs were seeded to a size of 7 mm×8 mm gelfoam (Pharmaca, Boulder, Colo.) and cultured for 3 days in vitro. The gelfoam with BMMSCs was placed to the calvarial bone defects and covered completely by skins. For aspirin treated group, the BMMSCs seeded on gelfoam were pretreated with 50 μg/ml aspirin for 3 days, then placed to the calvarial bone defect. Another gelfoam with 100 μg aspirin as a releasing system was covered on the surface of the gelfoam with BMMSCs (FIG. 14).

Assay [9] relates to osteoclastogenesis, osteogenesis. Conditions: literature (13-15); cited from earlier work.

In the case of `CC(=O)Oc1ccccc1C(=O)O` [aspirin], in assay [1], the “IFN-γ positive cells in BMMSC implants” value is on record as “significantly decreased; also recorded: suppressive effect”. The “level of TNF-α in BMMSC implants” value in [2] is given as “reduces; also recorded: suppressed”. Besides, in assay [3], the “TNF-α positive cells in BMMSC implants” value is on record as “significantly decreased; also recorded: suppressive effect”. Besides, the “level of IFN-γ in BMMSC implants” value in assay [4] is given as “reduces; also recorded: suppressed”. Also, the “BMMSC-mediated bone formation suppressed by IFN-γ or TNF-α” value in assay [5] (200 ng IFN-γ or TNF-α co-implanted, 50 μg/ml aspirin pre-treatment and 100 μg aspirin co-implanted) is given as “significant rescuing of BMMSC-mediated bone formation; also recorded: restored bone formation”. For the same compound, the “amount of new bone formation” value in assay [5] (BMMSCs treated with 50 μg/ml aspirin for 2 days, HA/TCP, vs untreated control) was “increased”. In addition, in assay [6], the “numbers of surviving GFP positive BMMSCs in implants” value was “significantly increased numbers of survival cells; also recorded: significant increase in survival of BMMSCs”. Further, the “level of IL-10 in BMMSC implants” value in assay [7] was “not and without affecting”. Moreover, the “repair of 7×8 mm calvarial bone defects” value in assay [8] (BMMSCs cultured with 50 μg/ml aspirin, gelfoam containing 100 μg aspirin, 12 weeks, microQCT, vs BMMSC/gelfoam) was “completely repaired; also recorded: significantly improves BMMSC-based calvarial defect repairing; also recorded: marked improvement in repairing calvarial defects”. Besides, in assay [8] (BMMSCs with gelfoam containing aspirin (100 μg)), the “structure of regenerated tissues versus normal calvarial tissues” value was “analogous to normal calvarial tissues”. In addition, in assay [9], the osteoclastogenesis result is reported as “inhibits osteoclastogenesis” and the osteogenesis result was “improves osteogenesis”.
